From PMC11148080, “Ru(II)-based complexes containing 2-thiouracil derivatives suppress liver cancer stem cells by targeting NF-κB and Akt/mTOR signaling” (Cell Death Discovery, 2024)

How the values were obtained:
[1] = tested on: BAD KO SV40 MEF; assay: Alamar Blue survival curves; format: cell-based, mouse; details: for involvement of proapoptotic protein BAD in cell death: BAD KO SV40 MEF vs WT SV40 MEF; for IC50: BAD KO SV40 MEF, 72 h
Procedure: (§1) A Quantification of mitochondrial membrane depolarization in HepG2 cells after 24 h of incubation with complex 1 or 2, as determined by flow cytometry. B and C Quantification of PARP (Asp214) cleavage in HepG2 cells after 24 h of incubation with complex 1 (8 μM) or 2 (6 μM), as determined by flow cytometric analysis. MFI: Mean fluorescence intensity. D Survival curves of WT SV40 MEFs and BAD KO SV40 MEFs upon treatment with complexes 1 and 2 and 5-fluorouracil (5-FU, used as a positive control). The curves were obtained from at least three biological replicates carried out in duplicate using the Alamar Blue assay after 72 h of incubation. E DNA fragmentation (sub-G0/G1 cells) and cell cycle distribution (G0/G1, S and G2/M phases) of WT SV40 MEFs and BAD KO SV40 MEFs after 48 h of incubation with complexes 1 (10 μM) and 2 (10 μM) or 5-FU (40 μM). The vehicle (0.2% DMSO) was used as a negative control (CTL). The data are expressed as the mean ± S.E.M. of three biological replicates carried out in duplicate. *P < 0.05 compared to CTL by one-way analysis of variance (ANOVA) followed by Dunnett’s multiple comparisons test.
(§2) The Alamar Blue assay was used to measure cell viability, as previously described. Adherent cells were seeded in 96-well plates at a density of 7 × 10^3 cells per well, and suspended cells were seeded at 3 × 10^4 cells per well. Drugs were added to each well after overnight incubation for adherent cells or immediately after seeding for suspension cells, and incubation continued for an additional 72 h. […] Four hours (for cell lines) or 24 h (for primary cultures) before the end of incubation, 20 μL of resazurin (30 μM) (Sigma‒Aldrich Co. St. Louis, MO, USA) was added to each well. The absorbance at 570 and 600 nm was measured using a SpectraMax 190 microplate reader (Molecular Devices, Sunnyvale, CA, USA).

[2] = tested on: WT SV40 MEF; assay: Alamar Blue survival curves; format: cell-based, mouse; details: 72 h
Procedure: as §1, §2

[3] = tested on: HepG2 cells; assay: EMT markers vimentin and E-cadherin by flow cytometry; format: cell-based, human; details: HepG2, 24 h; 6 μM complex 2
Procedure: To stain the cell surface proteins, the cells were washed with an incubation buffer (0.5% bovine serum albumin in PBS), and then antibodies were added and incubated for 1 h at room temperature. The cells were then washed with PBS, and the fluorescence signal was measured by flow cytometry. CD133 and CD44 were quantified in YO-PRO-1 (Sigma‒Aldrich Co.) negative cells.
To stain intracellular proteins, the cells were harvested and resuspended in 0.5-1 mL of 4% formaldehyde for 10 min at 37 °C. The tube was then placed on ice for 1 min, after which the cells were prechilled and permeabilized using a sequence of 100% (30 min) to 90% (30 min) methanol with gentle mixing. After washing with incubation buffer (0.5% bovine serum albumin in PBS), primary antibodies were added and incubated for 1 h at room temperature. Finally, the cells were washed with PBS, and flow cytometry was used to measure cell fluorescence.

[4] = tested on: HepG2 cells; assay: Trypan blue exclusion assay; format: cell-based, human; details: HepG2, 72 h
Procedure: The number of viable cells (unstained cells) and nonviable cells (trypan blue-stained cells) was counted by the trypan blue exclusion test. Briefly, 90 μL of cell suspension was selected, and 10 μL of trypan blue (0.4%) was added. A hemocytometer was used to fill the aliquot of the homogenized cell suspension, and the cells were counted under a light microscope.

[5] = tested on: HepG2 cells; assay: May-Grunwald-Giemsa staining morphology; format: cell-based, human; details: 24, 48, 72 h
Procedure: Cells were grown on coverslips and stained with May-Grunwald-Giemsa. Subsequently, we employed light microscopy to examine and analyze morphological changes.

Compound: Cc1cc(=O)nc([S][Ru+])[nH]1.F[P-](F)(F)(F)(F)F.c1ccc(-c2ccccn2)nc1.c1ccc(P(c2ccccc2)c2ccccc2)cc1.c1ccc(P(c2ccccc2)c2ccccc2)cc1 [Complex 2, trans-[Ru(6m2TU)(PPh3)2(bipy)]PF6]
- involvement of proapoptotic protein BAD in cell death [1]: independent of the protein BAD
- IC50 [1]: 4.1 µM
- IC50 [2]: 5.1 µM
- E-cadherin expression [3]: increased
- vimentin expression [3]: reduced
- reduction of cell viability ([4]; 1.5 µM): 39.4%
- reduction of cell viability ([4]; 3 µM): 61.4%
- reduction of cell viability ([4]; 6 µM): 93.5%
- cell morphology (May-Grunwald-Giemsa) [5]: cell morphology changes that were associated with apoptosis

Compound: F[P-](F)(F)(F)(F)F.O=c1cc[nH]c([S][Ru+])n1.c1ccc(-c2ccccn2)nc1.c1ccc(P(c2ccccc2)c2ccccc2)cc1.c1ccc(P(c2ccccc2)c2ccccc2)cc1 [Complex 1, trans-[Ru(2TU)(PPh3)2(bipy)]PF6]
- involvement of proapoptotic protein BAD in cell death [1]: independent of the protein BAD
- IC50 [1]: 4.6 µM
- IC50 [2]: 5.4 µM
- reduction of cell viability ([4]; 2 µM): 46.5%
- reduction of cell viability ([4]; 4 µM): 72.2%
- reduction of cell viability ([4]; 8 µM): 95.8%
- cell morphology (May-Grunwald-Giemsa) [5]: cell morphology changes that were associated with apoptosis
